This data set is described as follows: Injection of alcian blue solution at the lowest electric resistance point near Jung-Wan, arrival at pancreas observed by stereoscopic microscope. In kind it is in vivo. The conditions noted are these: hairless mouse, subcutaneous tissue near Jung-Wan, 0.1 μl a minute for 2 to 3 hours. The protocol:
For laboratory animals, the hairless mouse (males, about 6 weeks old) supplied from the JungAng Laboratory Animal Company were used. The laboratory animals were managed in a breeding cage with temperature of 23° C. and 60% relative humidity under 12 hour light/dark cycles and supplied with food and water for ad libitum access.
The hairless mouse living in the above environment was anaesthetized by administering 1.5 g/kg of urethane, and all of the surgical procedures were performed under anesthesia. The hairless mouse under anesthesia were placed on the operating table under the stereoscopic microscope (Olympus SZX12) connected with the computer and the CCD camera.
Jung-Wan was determined at the middle of the umbilicus and the xiphoid process-sternum junction (JungJeong, one of acupuncture points) along the linea alba of the hairless mouse according to “GolDo method”, which is a method of finding acupuncture points by using its unique measuring units. After Jung-Wan was determined, the point having the lowest electric resistance was found within a radius of 2 mm from Jung-Wan by using the electro acupuncture point detector (Hamtech Korea Co., YNS202-S) and determined as the point into which an alcian blue solution would be injected. […]

These results are taken from US8057783B2, “Method of injecting liquid agents at acupuncture points to arrive internal organs and method of visualizing arrival of liquid agents” (Seoul National University Industry Foundation, priority 2007, dated 2011).

As for alcian blue [alcian blue solution], the “distribution of the visualizing material in internal organs after injection” value is given as “dispersed into the threadlike structures penetrating out through the surface of the pancreas”.
